Consider 3 compounds from patent US6699676B1, “Uses of ouabain and ouabain-like molecules in apoptosis related pathologies” (Corporation du Centre de Recherche du Centre, Hospitalier …, priority 1999, dated 2004).

One assay has as its system Jurkat cells. Description: Chromatin cleavage assay in Jurkat cells. In kind it is cell-based, human. The note with it: for Chromatin fragments (%): 1 mM, 2 hours + 7 hours; for content of chromatin fragments: 3 hours, 0.25 μM staurosporine or 350 mM mannitol (from 2.6±1.2). Here is the method:
FIG. 4. Effect of ouabain on chromatin cleavage in Jurkat cells. (A) Kinetics of accumulation of chromatin fragments in control (curves 1, 3) and ouabain-treated (curves 2, 4) cells in the absence (curves 1, 2) or presence (curves 3, 4) of 100 ng/ml of anti-human Fas (mouse monoclonal IgM, Upstate Biotechnology, Lake Placid, N.Y.); (B) Content of chromatin fragments in Jurkat cells subjected to 3 hours of incubation with or without 1 mM ouabain, 0.25 μM staurosporine and 350 mM mannitol. In both experiments, ouabain was added 2 hours before triggering of apoptosis. Mean values±S.E. obtained in experiments performed in triplicate are given.
To estimate chromatin cleavage, cells were incubated for 2 hours in the presence of 10% calf serum in the control solution (DMEM, [Na^+]=137 mM; [K^+]=5 mM—line 1) or under equimolar substitution of NaCl with KCl ([Na^+]=14 mM; [K^+]=128 mM—line 2) with or without 1 mM ouabain and then for an additional 7 hours at the same media with or without 100 ng/ml Fas ligand (Fas-L). Intracellular Na^+ and K^+ content was measured as steady-state distribution of isotopes after 24 hours preincubation of cells in control Na^+-enriched solution containing 0.5 μCi/ml ^86Rb or 2 μCi/ml ^22Na, and an additional 6 hours incubation in Na^+—(line 1) or K^+—(line 2) enriched medium containing 10% calf serum, isotopes with the same specific activity with or without 1 mM ouabain. For more details see Experimental Procedures. Mean values±S.E. obtained in experiments performed in triplicate are given. ★, #p<0.01 and 0.001 compared to ouabain-untreated cells.
Cells. VSMC were obtained by explant methods from aortas of 10- to 13-week-old male rats as described previously (17), cultured in DMEM with 10% calf serum, 100 U/ml penicillin, 100 µg/ml streptomycin and used between 10 to 16 passages. Cells transfected with c-myc (VSMC-MYC) and E1A-adenovirus (VSMC-E1A) were obtained in accordance with a previously-described protocol (18,19) and were cultured in the same medium with the addition of 500 µg/ml genticin. Jurkat cells were obtained from the American Type Culture Collection and cultured in RPMI 1640 medium supplied with 10% calf serum, antibiotics, sodium pyruvate, glutamate and β-mercaptoethanol.
Chromatin cleavage assay. Chromatin cleavage in VSMC was estimated by a technique described previously in detail (10). Briefly, VSMC grown in 24-well dishes were labeled for 24 hours in serum-supplied DMEM with [^3H]-thymidine (1 μCi/ml), washed with 2×2 ml of DMEM and incubated in serum-supplied DMEM. In 48 hr, the cells were pretreated with ouabain or K^+-depleted medium as indicated in FIG. 2 and Table 3, washed twice with serum-containing medium and incubated with 0.5 ml of medium with or without ouabain and containing different inducers of apoptosis. To measure the content of chromatin fragments, the cells were transferred on ice and 1 ml of ice-cold lysed buffer (10 mM EDTA, 10 mM tris-HCl, 0.5% triton X100 (pH 8.0)) was added. After 15 min, the cell lysate was transferred to Ependorf tubes, sedimented (12,000 rpm, 10 mm), and 1 ml of supernatant was transferred for the measurement of radioactivity (A1t). The remaining radioactivity from pellets and wells was extracted with 0.5 ml of 1% SDS/4 mM EDTA mixture, combined and counted (A2). Chromatin cleavage was quantified as the content of chromatin fragments normalized by total content of [^3H]-labeled DNA in accordance with the equation [1.5×(A1t−A1o)/(A2+A1t−1.5A1o)]×100% where A1o is the value of A1t before induction of apoptosis. To measure chromatin fragmentation in [^3H]-thymidine-labeled Jurkat cells, they were resuspended at a density of 10^6 cells/ml in medium containing 10% calf serum and the additions indicated in FIG. 4 and Table 4. At the time intervals shown in FIG. 4, 100 μl of cell suspension was mixed with 100 μl of PBS contairung 0.5% triton X100, and the content of chromatin fragments was measured as described previously in detail (20).

For assay [1], the system named is caspase-3. Put plainly: Caspase-3 activity in treated VSMC-E1A. It counts as cell-based, rat. Here is the method:
(§1) FIG. 5. Effect of ouabain on caspase-3 activity in VSMC-E1A (A) and Jurkat cells (B). VSMC-E1A and Jurkat cells were pretreated with 1 mM ouabain for 1 and 2 hours, respectively, and the additions indicated below the bars were delivered in media with 10% calf serum and with the baseline (137/5) or inverse (14/128) [Na^+]o/[K^+]o ratio for 6 (VSMC-E1A) or 3 hours (Jurkat cells). In experiments with VSMC-E1A, calf serum (CS) was omitted where indicated (−). Abbreviations: staur.—staurosporine (0.25 μM), ok.ac.—okadaic acid (1 μM), mann.—mannitol (350 mM); Fas-L—Fas ligand (100 ng/ml). Mean values±S.E. obtained in experiments performed in quadruplicate (A) or triplicate (B) are given. ★p<0.001 compared to ouabain-untreated cells.
(§2) Caspase activity. VSMC-E1A seeded in 20 cm^2 flasks and treated as indicated in FIG. 5 were scratched, transferred to centrifuge tubes, washed twice with PBS and lysed in 0.5 ml of buffer A contaming 50 mM tris-HCl (pH 7.4), 5 mM MgCl2, 1 mM EGTA and 0.1% CHAPS. Then, 50-100 μl of cell lysate was mixed with 600 μl of buffer A containing 1 mM dithiothreitol, 40 μM YVAD-AMC or DEVD-AMC with or without 1 μM of caspase-1 and capspase-3 inhibitors (Ac-YVAD-CHO and Ac-DEVD-CHO, respectively), incubated for 2 hours at 37° C. and diluted 15-fold with 80 mM glycine-NaOH buffer (pH 10). Fluorescence of the samples was measured at ex=365 run and em=465 run and calibrated with AMC in the range of 10 to 100 nM. To measure caspase activity in control and ouabain-treated Jurkat cells, 5 ml of suspension containing ˜2×10^7 cells was transferred onto ice and sedimented. The pellet of cells was washed and treated with 0.3 ml of medium A in the same way as VSMC. Protein content was estimated by Bradford methods.

The test system of assay [2] is caspase-3. Description: Caspase-3 activity in treated Jurkat cells. The note with it: for increase of caspase-3 activity: 3 hours, Fas ligand 100 ng/ml, staurosporine 0.25 μM, mannitol 350 mM. In kind it is cell-based, human. As for the experimental part: as §1, §2

As to `C[C@@H]1O[C@@H](O[C@H]2C[C@@H](O)[C@]3(CO)[C@H]4[C@H](O)C[C@]5(C)[C@@H](C6=CC(=O)OC6)CC[C@]5(O)[C@@H]4CC[C@]3(O)C2)[C@H](O)[C@H](O)[C@H]1O` [Ouabain, 1β,3β,5,11α,14,19-hexahydroxycard 20 [22]-enolide 3-[6-deoxy-α-L-mannopyrano-sidel]], in the assay on Jurkat cells (Jurkat cells, 2 hours ouabain pretreatment, subsequent 3 hours), the “chromatin cleavage in the absence of triggers of apoptosis” value was “did not significantly modify chromatin cleavage”. Also, the “increment of chromatin cleavage triggered by Fas ligand, staurosporine or mannitol” value in the assay with Jurkat cells (Jurkat cells, ouabain, 3 hours treatment with trigger) is on record as “did not observe any effect”. The “Chromatin fragments (%)” value is recorded as 22.7% with Jurkat cells (ouabain-treated Jurkat cells, +Fas-L 100 ng/ml, medium [Na+]o=14, [K+]o=128 mM); 42.7% in the assay on Jurkat cells (ouabain-treated Jurkat cells, +Fas-L 100 ng/ml, medium [Na+]o=137, [K+]o=5 mM); 5.7% in the assay with Jurkat cells (ouabain-treated Jurkat cells, no Fas-L, medium [Na+]o=14, [K+]o=128 mM); 5.7±2.0% in the assay on Jurkat cells (ouabain-treated Jurkat cells, no Fas-L, medium [Na+]o=14, [K+]o=128 mM, listed as ouabain); 16.0% in the assay with Jurkat cells (ouabain-treated Jurkat cells, no Fas-L, medium [Na+]o=137, [K+]o=5 mM); 16.0±4.6% with Jurkat cells (ouabain-treated Jurkat cells, no Fas-L, medium [Na+]o=137, [K+]o=5 mM, listed as ouabain). The “increment of the content of chromatin fragments triggered by Fas ligand” value in the assay with Jurkat cells (ouabain-treated Jurkat cells, 7-hr incubation) was 26.2±4.7%. The “increment of caspase-3 activity under induction of apoptosis” value in the assay with caspase-3 [1] (1 mM ouabain, control medium) was “abolished the increment of caspase-3 activity”. Besides, the “caspase-3 activity in apoptosis triggered by okadaic acid” value in the assay on caspase-3 [1] (ouabain, K+-enriched, Na+-depleted medium ([Na+]o/[K+]o=14/128)) is recorded as “did not observe any effect”. Also, the “baseline activity of caspase-3” value with caspase-3 [1] (pretreatment 1 hour with 1 mM ouabain (from 560±41)) was 101±39 pmol (mg prot)^−1 hr^−1. Besides, the “increment of caspase-3 activity triggered by Fas ligand, staurosporine and hyperosmotic shrinkage” value in the assay with caspase-3 [2] (ouabain) is “Neither ouabain nor equimolar substitution of Na^+ by K^+ in the incubation medium affected the increment of caspase-3 activity”. Moreover, the “baseline caspase-3 activity” value with caspase-3 [2] (pretreatment 2 hours with 1 mM ouabain (from 296±38)) was 497±67 pmol (mg prot)^−1 hr^−1.
With `CN[C@@H]1C[C@H]2O[C@@](C)([C@@H]1OC)n1c3ccccc3c3c4c(c5c6ccccc6n2c5c31)C(=O)NC4` [staurosporine], in the assay on Jurkat cells (Jurkat cells), the “content of chromatin fragments” value came out at 19.7±4.3%. Moreover, the “increase of caspase-3 activity” value with caspase-3 [1] (6 hours, staurosporine 0.25 μM, okadaic acid 1 μM) is on record as 8 fold; in the assay with caspase-3 [2] it was roughly 20 fold.
Take `OC[C@@H](O)[C@@H](O)[C@H](O)[C@H](O)CO` [mannitol]: in the assay with Jurkat cells (Jurkat cells), the “content of chromatin fragments” value is 15.6±2.9%. Moreover, the “caspase-3 activity under mannitol-induced cell shrinkage” value in the assay with caspase-3 [1] (350 mM mannitol, 6 hours) is given as “insensitive to mannitol-induced cell shrinkage”. Further, in the assay with caspase-3 [2], the “increase of caspase-3 activity” value is listed as roughly 10 fold.
